From the Deep4Chem optical property database come the findings set out here.

The nature of the data set: solvent given as SMILES.

In turn, `CC(C)c1cccc(C(C)C)c1N1C(=O)c2ccc3cc4c(cc5ccc6c7c(ccc4c57)C(=O)N(c4c(C(C)C)cccc4C(C)C)C6=O)c4ccc(c2c34)C1=O` registered an absorption maximum (in ClCCl) of 648 nm.

Turning to `N#Cc1cc(-c2ccc(/C=C/c3ccc(N(c4ccccc4)c4ccccc4)cc3)c(C#N)c2)ccc1/C=C/c1ccc(N(c2ccccc2)c2ccccc2)cc1`, the absorption maximum (in ClCCl) was 428 nm.

Take `c1ccc(N(c2ccccc2)c2ccc(-c3ccc4c(c3)C3(c5ccccc5Sc5ccccc53)c3cc(-c5ccc(N(c6ccccc6)c6ccccc6)cc5)ccc3-4)cc2)cc1`: the absorption maximum (in ClCCl) is listed as 375 nm.

Turning to `COc1ccc2c(=O)c3c([nH]c2c1)-c1ccccc1NC3(C)C`, the absorption maximum is 404 nm (in C1CCOC1); 415 nm (in CC#N); 424 nm (in CCCCO); 421 nm (in CCCO); 424 nm (in CCO); 395 nm (in CCOC(C)=O). The absorption maximum amounted to 421 nm (in CN(C)C=O); 424 nm (in CO); 424 nm (in CS(C)=O); 397 nm (in Cc1ccccc1); 404 nm (in ClC(Cl)(Cl)Cl); 403 nm (in ClCCl). Besides, the absorption maximum is on record as 383 nm (in O) and 402 nm (in c1ccccc1).

As for `CN(C)c1ccc(-c2ccc(-c3ccc(N(C)C)cc3)c3nc(-c4ccccc4)c(-c4ccccc4)nc23)cc1`, where the note is “in ClC(Cl)Cl”, the absorption maximum came out at 443 nm.

As for `COc1ccc2cc(/C=C/C3=[O+][B-](F)(F)OC(/C=C/c4ccc5cc(OC)ccc5c4)=C3c3ccccc3)ccc2c1`, the absorption maximum (in ClCCl) was 526 nm.

In the case of `N#Cc1cc(/C=C/c2ccc(N(c3ccccc3)c3ccccc3)cc2)ccc1-c1ccc(/C=C/c2ccc(N(c3ccccc3)c3ccccc3)cc2)cc1C#N`, the absorption maximum (in ClCCl) is listed as 386 nm.

With `c1ccc(-c2c3ccccc3c(-c3ccccc3)c3cc4ccccc4cc23)cc1`, for the setting “in ClCCl”, the absorption maximum came to 493 nm.

Under “in ClCCl”, `[O-][n+]1c(/C=C/c2ccc3ccccc3c2)nc(N2CCOCC2)c2c1CCCC2` had an absorption maximum of 400 nm.

As to `COC(=O)/C=C/C=C/C1=CC2=C(c3c(C)cc(C)cc3C)c3cc(/C=C/C=C/C(=O)OC)cn3[B-](F)(F)[N+]2=C1`, the absorption maximum (in ClCCl) was found to be 633 nm.

For the compound `CCCCCCCCCCCCN1C(=O)c2c(c3ccc4cc(-c5ccc(C)cc5)c(OC)cc4c3c3c2ccc2cc(-c4ccc(C)cc4)c(OC)cc23)C1=O`, the absorption maximum (in ClCCl) was determined as 436 nm.

The compound `Oc1cc(-c2cccs2)ccc1-c1nc2ccccc2s1` came in with an absorption maximum (in ClCCl) of 364 nm.

`CCOC(=O)COc1ccc(/C=C/C2=C3c4ccccc4C(c4[nH]c(C)cc4C)=[N+]3[B-](F)(F)n3c(C)cc(C)c32)cc1` displayed an absorption maximum (in C1CCOC1) of 608 nm; an absorption maximum (in CC#N) of 602 nm; an absorption maximum (in CCCCCC) of 608 nm; an absorption maximum (in CO) of 603 nm; an absorption maximum (in Cc1ccccc1) of 614 nm; an absorption maximum (in ClCCl) of 608 nm.

Regarding `F[B-]1(F)n2cccc2C(c2ccccc2)=C2C=CC(c3cccc(OC4=[N+]5C(=C(c6ccccc6)c6cc(Br)c(-c7ccc[nH]7)n6[B-]5(F)F)C=C4Br)c3)=[N+]21`, the absorption maximum (in ClC(Cl)Cl) amounted to 627 nm.

In turn, `COc1ccc(-c2ccc(/C=C/c3cnc4ccccc4n3)cc2)cc1` displayed an absorption maximum (in ClCCl) of 379 nm.

Regarding `COc1cc(N2CCOCCOCCN(c3cc(OC)c(NC(=O)c4ccc(-c5c6cc(Cl)c(=O)cc-6oc6cc([O-])c(Cl)cc56)c(C(=O)[O-])c4)cc3OC)CCOCC2)c(OC)cc1NC(=O)c1ccc(-c2c3cc(Cl)c(=O)cc-3oc3cc([O-])c(Cl)cc23)c(C(=O)[O-])c1`, the absorption maximum (in O) is 507 nm.

Consider `O=C(O)c1cc2c(ccc3ccccc32)oc1=O`, for which the absorption maximum is 372 nm (in C1COCCO1); 376 nm (in CC#N); 372 nm (in CCCCO); 363 nm (in CCO); 364 nm (in CO); 376 nm (in O).

As to `CCCCc1ccc2ccc3c(CCCC)ccc4ccc1c2c43`, the absorption maximum is on record as 344 nm (in CCCCCC), 344 nm (in CO) and 347 nm (in ClCCl).

For `CCN1/C(=C/C=C/C2=[N+](C)c3ccccc3C2(C)C)C(C)(C)c2ccccc21`, for the setting “in CS(C)=O”, the absorption maximum amounted to 552 nm.

As for `c1ccc(-c2ncc3ccccn23)cc1`, the absorption maximum (in ClC(Cl)Cl) was 317 nm.

With `COc1ccc(-c2csc(/C(C#N)=C\Nc3ccc(C#N)cc3)n2)cc1`, the absorption maximum is, setting by setting: (in CC#N) 376 nm; (in CCO) 378 nm; (in CN(C)C=O) 380 nm; (in Cc1ccccc1) 381 nm; (in ClCCl) 379 nm.

Take `N#C/C(=N/Nc1ccc(C#N)cc1)c1nc(-c2ccccc2)cs1`: the absorption maximum (in CC#N) turned out to be 396 nm; the absorption maximum (in CCO) is on record as 398 nm; the absorption maximum (in CN(C)C=O) is on record as 477 nm; the absorption maximum (in Cc1ccccc1) is reported as 401 nm; the absorption maximum (in ClCCl) is reported as 399 nm.

`CCCCCCCCCCCCCCCCCCN1C(=O)c2ccc3c4ccc5c6c(ccc(c7ccc(c2c37)C1=O)c64)C(=O)N(CCCCCCCCCCCCCCCCCC)C5=O` had an absorption maximum (in CN(C)C=O) of 525 nm.

Take `c1ccc(N2c3ccc4ccccc4c3-c3c4ccccc4nc[n+]3[B-]2(c2ccccc2)c2ccccc2)cc1`: the absorption maximum (in C1CCC2CCCCC2C1) amounted to 542 nm; the absorption maximum (in C1CCCCC1) is 539 nm; the absorption maximum (in C1CCOC1) worked out at 535 nm; the absorption maximum (in CC#N) amounted to 527 nm; the absorption maximum (in CC(C)=O) was found to be 530 nm; the absorption maximum (in CCCCCC) was 537 nm. Moreover, the absorption maximum was determined as 532 nm (in CCOC(C)=O), 532 nm (in CN(C)C=O), 539 nm (in Cc1ccccc1) and 541 nm (in ClC(Cl)Cl).

The compound `COc1ccc(-c2ccc3c(c2)c2cc(-c4ccc(OC)cc4)ccc2n3-c2ccc(C(=O)c3ccc4sc5ccccc5c4c3)nc2)cc1` gave an absorption maximum (in Cc1ccccc1) of 390 nm.

Compound `Cc1ccc(-c2nc(-c3cc([N+](=O)[O-])ccc3O)[nH]c2-c2ccc(C)cc2)cc1` registered an absorption maximum (in CO) of 284 nm.

Take `Cc1ccccc1C1=C2C=c3c(oc4ccc(F)cc34)=[N+]2[B-](F)(F)n2c1cc1c3cc(F)ccc3oc12`: the absorption maximum runs as follows: (in C1CCCCC1) 581.5 nm; (in CCOC(C)=O) 576.5 nm; (in CO) 574.5 nm.

Consider `COC(=O)c1ccc(/C=C2\C=C(c3ccc([N+](=O)[O-])cc3)N(CC(C)C)C2=O)cc1`, for which, for the setting “in C1COCCO1”, the absorption maximum amounted to 442 nm.

`CC(C)[Si](C#Cc1c2nc3ccccc3nc2c(C#C[Si](C(C)C)(C(C)C)C(C)C)c2nc3c(ccc4cc5ccccc5cc43)nc12)(C(C)C)C(C)C`: the absorption maximum (in CCCCCC) was 638 nm.

`Cc1nnc(-c2ccc(-n3c4ccccc4c4ccccc43)cc2)o1` returned an absorption maximum (in Cc1ccccc1) of 340 nm.

Regarding `C1=C(c2ccc(-c3cccs3)s2)CCC(c2ccccc2)C1` (stereo unspecified), the absorption maximum is, setting by setting: (in C1CCOC1) 342 nm; (in CC#N) 341 nm; (in CCCCCC) 341 nm; (in CCO) 341 nm; (in OCCOCCO) 346 nm; (in c1ccncc1) 347 nm.

As for `COc1ccc2c(-c3nc(-c4ccccc4Cl)no3)cc(=O)oc2c1`, the absorption maximum is listed as 354 nm (in CCO) and 355 nm (in ClC(Cl)Cl).

For `O=C([O-])c1c(Cl)c(Cl)c(Cl)c(Cl)c1-c1c2cc(Cl)c(=O)c(Cl)c-2oc2c(Cl)c(O)c(Cl)cc12`, under “in O”, the absorption maximum was determined as 537 nm.

For the compound `COc1ccc2c(c1)sc1[n+]2[B-](F)(F)OC(c2ccc(N(C)C)cc2)=N1`, the absorption maximum is on record as 430 nm (in C1CCOC1); 426 nm (in CC#N); 431 nm (in CC(C)=O); 427 nm (in Cc1ccccc1); 430 nm (in ClCCl).

Take `CCOC(=O)c1cc(C(=O)OCC)c2cc(N(CC)CC)ccc2n1`: the absorption maximum (in CCO) came out at 453 nm.

`COC(=O)c1cc2c(cc3ccc4cccc5ccc2c3c45)[nH]1` yielded an absorption maximum (in C1CCOC1) of 400 nm.

For `CCC(C)(C)c1ccc2c(c1)C(CCOC)(CCOC)c1cc(-c3ccc4c(c3)C(CCOC)(CCOC)c3cc(C(C)(C)CC)ccc3-4)ccc1-2`, under “in C1CCCCC1”, the absorption maximum is given as 331 nm.

The compound `COc1ccc(C#Cc2ccc3nc4ccc(C#Cc5ccc(OC)cc5)cn4c(=O)c3c2)cc1` yielded an absorption maximum (in ClCCl) of 385 nm.

Regarding `c1ccc(-n2c3c(c4c2-c2ccccc2C42c4ccccc4-c4ccccc42)C2(c4ccccc4-c4ccccc42)c2ccccc2-3)cc1`, for the setting “in C1CCOC1”, the absorption maximum is listed as 375 nm.

In turn, `c1cnc2c(c1)c1nc(-c3ccc(-c4nc5c6cccnc6c6ncccc6c5[nH]4)cc3)[nH]c1c1cccnc12` yielded an absorption maximum (in CS(C)=O) of 398 nm.

Take `c1ccc(Cn2c3sccc3c3c4nsnc4c4c5ccsc5n(Cc5ccccc5)c4c32)cc1`: the absorption maximum (in Cc1ccccc1) is listed as 424 nm and the absorption maximum (in ClCCl) is 424 nm.

`O=S1(=O)C2=C(c3ccc(-c4ccc(N(c5ccccc5)c5ccccc5)cc4)cc31)C1(C3=C(c4ccccc41)S(=O)(=O)c1cc(-c4ccc(N(c5ccccc5)c5ccccc5)cc4)ccc13)c1ccccc12`: the absorption maximum by setting is: (in C1CCOC1) 431 nm; (in CC#N) 430 nm; (in CCCCCC) 424 nm; (in Cc1ccccc1) 438 nm; (in ClCCl) 438 nm.

For the compound `Cn1nc(-c2ccccc2)c2nc3cc(Cl)ccc3nc21`, the absorption maximum reads like this: (in C1CCCCC1) 428 nm; (in C1CCOC1) 429 nm; (in CC#N) 427 nm.

Where the note is “in CC#N”, `N#Cc1nn(-c2ccccc2C(F)(F)F)nc1N1CCCC1` yielded an absorption maximum of 326 nm.

With `FC(F)(F)c1ccc(C2=CC3=c4cc(-c5ccc(C(F)(F)F)cc5)c5nc(C(F)(F)C(F)(F)C(F)(F)F)nc6c(-c7ccc(C(F)(F)F)cc7)cc(c4c65)C4=CC(c5ccc(C(F)(F)F)cc5)=C5N=C(C(F)(F)C(F)(F)C(F)(F)F)N=C2C5C43)cc1` (stereo unspecified), for the setting “in C1CCOC1”, the absorption maximum is on record as 489 nm.
